Assay: in vitro
Settings: human, hela cells, % viability

Row | SMILES | viability at 28.5 h, 10 µM [%]
1 | Cc1[nH]c2ccc(CNC(=O)Cn3ccnc3C(C)C)cc2c1C [CBK281540] | 87.6
2 | Cc1ccn(CCNC(=O)C2CCC(=O)N(CCc3ccccn3)C2)n1 (stereo not shown) [CBK306998] | 93.5
3 | NC(=O)CCN(CCC(N)=O)S(=O)(=O)c1ccc(N)cc1 [CBK262134] | 118
4 | CC1(C)Cc2cccc(OCC(=O)O)c2O1 [CBK270161] | 100
5 | COc1ccc2c(Cl)c(C(=O)NCCc3ccc(S(N)(=O)=O)cc3)sc2c1 [CBK268120] | 104
6 | Cc1ccc(-c2nnc(CNC(=O)c3cccc(-c4ccc(F)cc4)c3)o2)s1 [CBK286300] | 109
7 | CC(C)(C)C1=CC2=NC3(CCCCCCC3)[C@@H]3C[C@@H](O)[C@@H](O)[C@@H]3N2O1 [CBK303256] | 113
8 | CCc1n[nH]c(C(=O)N/N=C/c2cccnc2)c1C [CBK263386] | 90.4
9 | c1nc(N2CCOCC2)c2cn[nH]c2n1 [CBK016811] | 86.3
10 | CC1(C)NC(=O)N(CC(O)CN(C2CCCCC2)C2CCCCC2)C1=O (stereo not shown) [CBK264578] | 101
11 | CN1CCC(N2CCN(C(=O)Nc3cccnc3)CC2)CC1 [CBK156111] | 93.1
12 | COc1cccc(C(=O)N2CCCC(c3cc4ncccc4[nH]3)C2)c1 (stereo not shown) [CBK283416] | 104
13 | O=C(C[C@@H]1CCNC[C@@H]1Cc1cc(-c2ccc(F)cc2)on1)Nc1ccccc1 [CBK288801] | 96.4
14 | O=C(O)c1ccc(NS(=O)(=O)c2cccc([N+](=O)[O-])c2)cc1O [CBK200022] | 84.8
15 | COc1ccc(C(=O)N2CC[C@H]3NC(=O)N(c4ccccc4)C(=O)[C@H]32)cc1 [CBK289281] | 93.1
16 | Cc1ccc(S(=O)(=O)NCCc2cn3ccc(C)cc3n2)cc1 [CBK287630] | 103
17 | COc1ccc(CNC(=O)CC[C@H]2CNC(=O)[C@H]3NCC[C@H]3N2C)cc1 [CBK289025] | 87.6
18 | CC(c1ccc(F)c(F)c1)N(C)C(=O)Cn1ncn(C)c1=O (stereo not shown) [CBK305083] | 80.2
19 | CC(C)c1ccc(/C=C/C(=O)NCCN2CCOCC2)cc1 [CBK149631] | 92.6
20 | CN1C(=O)CC2(C1=O)C(=O)N(CCN1C(=O)c3ccccc3C1=O)c1ccc(F)cc12 (stereo not shown) [CBK075451] | 89.5
21 | COc1ccc(NC(=O)COc2noc3nc(C)c(C)c(C)c23)cc1OC [CBK269526] | 108
22 | O=C(O)CCCN1C(=O)/C(=C/c2ccc(O)c(O)c2)SC1=S [CBK262852] | 84.9

Row | SMILES | viability at 28.5 h, 10 µM [%]
23 | COc1ccc2c(C)c(CCC(=O)N(C)CC(=O)O)c(=O)oc2c1 [CBK286731] | 87
24 | Cc1ccc(-c2ccc(Nc3ccc(Oc4ccccc4)cc3)nc2)cc1C [CBK037740] | 92.7
25 | Cc1cccc(NC(=O)c2ccc3n[nH]c(=S)n3c2)c1 [CBK288389] | 88
26 | Cc1ccccc1N1CCN(C(=O)c2c(C)oc3cc4c(C(=O)N5CCN(c6ccccc6C)CC5)c(C)oc4cc23)CC1 [CBK264833] | 89.2
27 | c1cncc(CNc2nccnc2-c2ccoc2)c1 [CBK037635] | 96.4
28 | Cc1cc(C)n(CC(=O)NCCCc2ccc(Cl)cc2)c(=O)n1 [CBK281561] | 96.3
29 | CN1C(=O)c2ccccc2C(O)C2(C)CN(Cc3ccccc3)CC12 (stereo not shown) [CBK282849] | 108
30 | COC(=O)CNC(=O)c1cc(-c2ccc(C)s2)nc2c1cnn2C(C)C [CBK305040] | 99.5
31 | COc1ccc(OC)c(Nc2nc(NCC3CCCO3)c3ccccc3n2)c1 (stereo not shown) [CBK268403C] | 90.9
32 | NC(=O)c1ccc(Nc2cc(N)ncn2)cc1 [CBK017969] | 94.1
33 | COc1nc(Cl)nc(Oc2ccc(F)cc2)n1 [CBK011279] | 122
34 | Nc1ncnc(NCCc2ccc(S(N)(=O)=O)cc2)c1[N+](=O)[O-] [CBK267320] | 86.4
35 | Cn1ncc2c1CCCN(C(=O)COc1ccccc1F)C2 [CBK285324] | 101
36 | CN1CC2(CCCN(Cc3nnc(-c4cccnc4)o3)C2)OC1=O (stereo not shown) [CBK306888] | 110
37 | Cc1nc2c(c(=O)[nH]1)CN(Cc1sccc1C)CC2 [CBK283950] | 91.1
38 | Cc1cc2c(cc3c(=O)n(CC(=O)N4CCC(C)CC4)nc(C)n32)o1 [CBK283590] | 90.1
39 | O=C1CC2(CCN(C(=O)N3CCCC3)CC2)Oc2ccc(F)cc21 [CBK283597] | 84.9
40 | O=C(OCc1ccccc1)N1CCC2(CC1)CN(c1ccc([N+](=O)[O-])cn1)CCO2 [CBK161111T] | 92
41 | CSCCC(C(=O)O)N1C(=O)c2ccccc2C1=O (stereo not shown) [CBK218448] | 102
42 | Cc1noc(C)c1C(=O)N1CCCCCC1c1cnn(C)c1 (stereo not shown) [CBK284974] | 98.8
43 | O=[N+]([O-])c1cc(Br)cc(/C=N/Nc2nc3ccccc3[nH]2)c1O [CBK263486] | 89.1
44 | Cc1ccc(NC(=O)CCc2cccnc2)c(C)n1 [CBK200386] | 101

Row | SMILES | viability at 28.5 h, 10 µM [%]
45 | Cc1noc(NS(=O)(=O)c2ccc(NC(=O)/C=C/c3ccc(Cl)cc3Cl)cc2)c1C [CBK263115] | 90.4
46 | Cn1cc(-c2nc(C(=O)NCC3CCN(c4ccccc4)C3)cs2)cn1 (stereo not shown) [CBK305633] | 84.8
47 | Cc1nc(NC(=O)c2c(F)cccc2F)sc1C [CBK300495] | 76.1
48 | CC(C)N(C(=O)Cn1c(C(F)F)cc2cccnc21)C(C)C [CBK285009] | 100
49 | Brc1cnc(OCc2ccccc2)nc1OCc1ccccc1 [CBK261274] | 101
50 | Oc1ccc(CN2CCN(Cc3ccc(Br)s3)CC2)c2cccnc12 [CBK295645] | 89.5
51 | O=C(CN1CC(O)CC1c1cccc(C(F)(F)F)c1)NCc1cccs1 (stereo not shown) [CBK305253] | 82.6
52 | COCCn1c(SCc2cn3cc(Br)ccc3n2)nc(C)c1C [CBK305704] | 83.1
53 | Cc1cc(=O)oc2cc(SCc3ccc(SC(F)(F)F)cc3)ccc12 [CBK002897] | 97.6
54 | COc1ccc2c(-c3cc(N)sn3)c(C)oc2c1 [CBK022260] | 83.8
55 | Cc1ccc(-n2cnnn2)c(S(=O)(=O)N2CCOCC2)c1 [CBK268297] | 102
56 | COc1ccc(S(=O)(=O)N(C)CC(=O)Nc2ccc(Br)cc2F)cc1Cl [CBK267916] | 81.3
57 | CN(C)C(=O)CN1C(=O)N2CCN=C2c2ccccc21 [CBK283961] | 94.7
58 | Clc1ccc(CSc2nccnc2N2CCCC2)cc1 [CBK107177] | 95.9
59 | CCOC(=O)c1cc(C(C)C)sc1NC(=O)C1C2C=CC(C2)C1C(=O)O (stereo not shown) [CBK265417] | 95.4
60 | CCN1CCc2cc(-c3cncn3CCCn3nc(C)cc3C)ccc21 [CBK281572] | 104
61 | Cc1ccccc1COc1cccn2c(N(C)CC3CCCO3)c(C)nc12 (stereo not shown) [CBK147231] | 115
62 | COCCN(Cc1ccncc1)C(=O)c1cc(C(C)C)n2ncnc2n1 [CBK306983] | 97.4
63 | c1cc(-c2cnn(-c3ccc4c(c3)CCO4)n2)cs1 [CBK112861] | 93.4
64 | Cc1c(Cl)ccc2c(C(=O)NCCCn3cc(Br)cn3)cc(-c3ccncc3)nc12 [CBK267731] | 95.1
65 | OCCN1CCN(Cc2nc(O)c3ccccc3n2)CC1 [CBK266089] | 98.5
66 | COc1ccc(/C=N\N(C)c2nc(-c3ccccc3)cc(-c3ccc(Br)cc3)n2)cc1OC [CBK261799] | 104

Row | SMILES | viability at 28.5 h, 10 µM [%]
67 | CCN1CCC(NC(=O)CSc2nc3ccccc3n2CCOC)CC1 [CBK306100] | 118
68 | CN1CCN(S(=O)(=O)c2ccc(NC(=O)c3cc(-c4cccnc4)nc4ccc(Cl)cc34)cc2)CC1 [CBK267734] | 94.2
69 | COc1ccc2c(c1)C1(CC(=O)N(CC(=O)N(C)C)C1=O)C(=O)N2CCCN(C)S(C)(=O)=O (stereo not shown) [CBK075889] | 118
70 | CN(C)C(=O)[C@H]1CC[C@]2(CC1)CNC(=O)c1ccccc1O2 [CBK284894] | 92.7
71 | O=C(OCCC1SC(NC2CC3C=CC2C3)=NC1=O)c1cc(F)ccc1F (stereo not shown) [CBK200059T] | 92.2
72 | COc1ccc(CC(=O)NC(c2nnc3ccccn23)C(C)C)cc1 (stereo not shown) [CBK304607] | 89.4
73 | COc1cc(C(c2c(C(=O)O)[nH]c3ccccc23)c2c(C(=O)O)[nH]c3ccccc23)cc(I)c1O [CBK267804] | 90.6
74 | CCOC(=O)c1cnc2ccc(C(CCOCc3ccccc3)OCc3ccccc3)cc2c1O (stereo not shown) [CBK018405] | 93.8
75 | COCCN1C(=O)C2(CC(=O)N(CC(=O)N(C)C)C2=O)c2cc(F)ccc21 (stereo not shown) [CBK075428] | 104
76 | COC(=O)NC(O)C(=O)c1ccco1 (stereo not shown) [CBK027757] | 94.7
77 | CN(C)C(=O)c1cccc(-c2nccnc2NCCO)c1 [CBK036582] | 90.3
78 | Cc1ccc(CC(=O)N2CCC(Cc3ccc(-c4cccc(C)c4)cc3)(C(N)=O)CC2)cc1 [CBK285906] | 89
79 | Cc1cc(CNS(=O)(=O)c2sc3ccc(C(C)C)cc3c2C)no1 [CBK170353] | 109
80 | Cc1nccn1CC1(O)CCN(C(=O)C(C)c2ccccc2)CC1 (stereo not shown) [CBK285388] | 104
81 | Cc1cc(N)n(CC(=O)NCCCn2ccnc2C(C)C)n1 [CBK306632] | 89.3
82 | O=C(NCCCN1CCOCC1)Nc1ccccc1F [CBK269233] | 88.6
83 | CC(=O)N1CC[C@H]2NC(=O)CNC(=O)C3(CCCC[C@H]2C1)CCN(C(=O)COc1ccccc1)CC3 [CBK292101] | 100
84 | Cc1ccc(S(=O)(=O)NCC(c2ccccc2)N2CCN(CCC#N)CC2)cc1 (stereo not shown) [CBK262865] | 97.4
85 | CS(=O)(=O)c1ccc(-c2c[nH]c([C@@H]3COCCN3C3CCCCC3)n2)cc1 [CBK289299] | 102
86 | c1ccc2c(c1)n[n+]1c3ccccc3[n-]n21 [CBK260974] | 85.7
87 | CC(Cc1cccs1)NC(=O)c1cccc(-n2cnnc2)c1 (stereo not shown) [CBK282443] | 102
88 | COc1cccc(/C=C(/C#N)c2ccc(Cl)cc2)c1OCc1cccc(C(=O)O)c1 [CBK266721] | 97.2
